# Values of other authors, collected in patent publication US20170290285A1, “HIGH REBAUDIOSIDE-C PLANT VARIETAL AND COMPOSITIONS EXTRACTED THEREFROM WITH HIGH REBAUDIOSIDE-C AND TOTAL STEVIOL GLYCOSIDE CONTENT” (GLG Life Tech Corporation, priority 2014, published 2017).
# Key:
# [1] = for Relative sweetness: Table 1
# [2] = heating at high temperature, cooking or barbecuing
molecule,measurement,setting,value
Rubusoside,Relative sweetness,[1],110
C=C1C[C@@]23CC[C@H]4[C@@](C)(CCC[C@@]4(C)C(=O)[O-])[C@@H]2CC[C@]1(O[C@@H]1O[C@@H](CO)[C@@H](O)[C@H](O)[C@@H]1O[C@@H]1O[C@@H](CO)[C@@H](O)[C@H](O)[C@@H]1O)C3.[Na+] [Stevlolbioside],"Solubility in water, %",,0.03%
same,Relative sweetness,[1],90
Rebaudioside C,"sweetness, × of sugar","[1]; versus sugar, list b13-b15",150-200 × of sugar
C[C@H](CC[C@@H](O[C@@H]1O[C@H](CO[C@@H]2O[C@H](CO)[C@@H](O)[C@H](O)[C@H]2O)[C@@H](O)[C@H](O)[C@H]1O[C@@H]1O[C@H](CO)[C@@H](O)[C@H](O)[C@H]1O)C(C)(C)O)[C@H]1CC[C@@]2(C)[C@@H]3CC=C4[C@@H](CC[C@H](O[C@@H]5O[C@H](CO[C@@H]6O[C@H](CO)[C@@H](O)[C@H](O)[C@H]6O)[C@@H](O)[C@H](O)[C@H]5O)C4(C)C)[C@]3(C)[C@H](O)C[C@]12C [Mogroside V],"sweetness, times that of sugar","[1]; versus sugar, b159",about 300 times
same,effect of heating on flavor,[2],does not affect the flavor
